In patent publication US20080293931A1, “Methods and compositions for the removal of nucleic acid amplification inhibitors” (priority 2006, published 2008):
Values joined by “and” are separate entries in the source; they are usually repeats but may differ in a detail not shown here. Equal values may be shown once. Where a name gives a salt, the structure may show the parent alone. Read-outs that look alike come from different tables or passages of the source.

Key:
[1] = Humic acid (HA) removal from aqueous commercial HA solutions by PIR compounds, fluorimetric HA determination; details: for performance as PIR compound (in words): commercial humic acid solutions
Description: Humic solutions were in 1×TAE buffer at RT with pH˜7. […] Samples from PIR experiments utilizing these materials were diluted, using 1×TAE, to concentrations falling within the linear response region representative of the humic material used.
In this study, when samples were interrogated for humic acid concentrations via fluorimetry, known concentrations of commercial humic acids were compared to known concentrations of humic standards.
FIG. 1 compares the HA removal from samples containing DNA of interest to the molar concentration of varied PIR compounds by plotting an HA reduction factor as the initial [HA] divided by [HA] following treatment with PIR compounds. The commercially available PIR kit, from Mo-BIO, is placed on FIG. 1 for comparison and was arbitrarily assigned a molar concentration of 1 for convenience. […] The data shown in FIG. 1 were generated from varied initial [HA], ranging from ˜5,000 to 300,000 mg/L HA. These varied initial [HA] values represent a “worst case” scenario and these are in comparison to initial [HA] in extractions from problematic soils generating humic acid concentrations typically less than 5,000 mg/L.
FIG. 2 plots the data from the same experiments represented in FIG. 1, but applying a different approach for data metric. FIG. 2 plots a dimensionless HA removal efficiency (or efficacy) value versus the decade of dilution necessary for successful PCR. The efficiency of HA removal is defined in equation 1 as the initial [HA] minus the final [HA] divided by the initial [HA]. This is essentially a percent removal approach.
Efficiency=[HA]i−[HA]f/[HA]; (1)
To further discriminate efficiency values greater than 0.99, the efficiency was subtracted from the integer value of 1, and the −log was taken of 1-efficiency to generate a non-negative value indicative of HA removal efficiency with greater level of discrimination and resolution of values with high degrees of HA removal. This is described by equation 2.

[2] = Stability of PIR compound in aqueous solution
E. coli DNA = assay: PCR of seeded E. coli DNA after PIR treatment of aqueous HA samples (decade of dilution necessary for successful PCR); details: PIR 1 M; aqueous humic samples seeded with E. coli DNA; HAi avg 6,500-12,300 depending on compound (Table 6 c2)
Description: Consideration of dilution factors for successful PCR must also be reviewed. In untreated soil extracts containing DNA of interest, successful PCR of the extracted DNA may occur when the polymerase inhibitor is diluted sufficiently such that inhibition is suppressed and PCR may occur. Typical values for the dilution decade at which PCR is successful in samples containing humic materials and DNA of interest are often around decade four (1×10^4). Accordingly, a dilution factor of 10,000 would be necessary for successful PCR in a typical soil extract/sample. This magnitude of dilution may also impact PCR sensitivity for DNA/species already present at low concentrations and result in not identifying an organism that was present in the original sample extract.
Using this approach for presenting the HA removal data allows for the determination of a PIR compound's effectiveness for HA removal (ε) and compatibility for application in PCR systems via dilution data for PCR.

[3] = Humic acid removal from soil extracts (Los Alamos Airport Soil) by PIR compounds; details: 100 mM PIR, HA 7,600 mg/L
Description: Aqueous samples of humic solutions were interrogated via fluorimetry on a Jobin Jvon Spex Fluorolog II with an excitation wavelength of 471 nm, an emission wavelength of 529 nm, with slits @ 10 nm bandpass, pmt bias of 950V, 1 second integration per reading and 10 readings per sample or <0.1% RSD per sample. Humic solutions were in 1×TAE buffer at RT with pH˜7. […] Samples from PIR experiments utilizing these materials were diluted, using 1×TAE, to concentrations falling within the linear response region representative of the humic material used.

seeded E. coli DNA = assay: PCR after PIR treatment of soil extracts (dilution to achieve PCR); details: 100 mM PIR; soil extracts (Los Alamos Airport Soil)
B. anthracis Sterne DNA = details: PIR (thiamine) treated; for B. anthracis per rxn: at 1st positive dilution; for 1st DNA dilution with positive PCR: spiked with B. anthracis Sterne DNA
[4] = PIR 1 M, aqueous humic samples seeded with E. coli DNA, HAi avg 6,500-12,300 depending on compound (Table 6 c2)

SMILES: O=C(C[n+]1ccsc1)c1ccc([N+](=O)[O-])cc1.[Br-] [PTB-NO2, 4-Nitro-Phenacyl Thiazolium Bromide]
- performance as PIR compound (in words) [1]: did not perform well
- performance as PIR compound (in words) ([1]; listed as PTB-N): poor performance
- stability in aqueous solutions [2]: not stable
- time to orange/red precipitate following dissolution ([2]; aqueous solutions): approximately 1 hour

SMILES: Cc1ncc(C[n+]2csc(CCO)c2C)c(N)n1 [THI, Thiamine Hydrochloride]
- Average Efficiency, ε [1, 4]: 2.13
- Avg Reduction Factor [1, 4]: 258
- Typical dilution decade for PCR (E. coli DNA): 0
- range of dilutions (dilution decade for PCR) (E. coli DNA): 0-3
- average efficiency values [3]: 1.4
- average reduction factors [3]: 45
- dilution decade at which PCR is achieved, on average (seeded E. coli DNA): 1.8
- B. anthracis per rxn (B. anthracis Sterne DNA; soil “A”): ~10^4 cell equivalents
- 1st DNA dilution with positive PCR (B. anthracis Sterne DNA; soil “A”): 10^0
- B. anthracis per rxn (B. anthracis Sterne DNA; soil “B”): ~10^4 cell equivalents
- 1st DNA dilution with positive PCR (B. anthracis Sterne DNA; soil “B”): 10^0
- B. anthracis per rxn (B. anthracis Sterne DNA; soil “C”): ~10^4 cell equivalents
- 1st DNA dilution with positive PCR (B. anthracis Sterne DNA; soil “C”): 10^0
- improvement of purity of DNA samples (bacterial 16S rDNA): two orders of magnitude
- increase in purity of soil DNA extract (bacterial 16S rDNA): ≥ 10 fold
- 1st DNA dilution with positive PCR (bacterial 16S rDNA; Hydrochloride): 10^−2 and 10^−1
- DNA dilution with positive PCR (bacterial 16S rDNA; Hydrochloride): 10^0 and 10^−1
